In ChEMBL document CHEMBL1137775, “Structure-based design of a benzodiazepine scaffold yields a potent allosteric inhibitor of hepatitis C NS5B RNA polymerase” (J Med Chem, 2009):

Columns and labels:
Hepatitis C virus [1] = experiment: Antiviral activity against HCV 1b having NS5B E1202G/T1280I/K1846 mutation infected in human hepatoma cells after 3 days by replicon luciferase assay; assay type: functional, organism-based, Hepacivirus hominis; details: genotype 1b, 72 h
Hepatitis C virus [2] = experiment: Inhibition of HCV 1b con1 isolate recombinant NS5B Cdelta21 RNA dependent RNA polymerase-mediated primer-dependent transcription by SPA; parameters: species or system Hepacivirus hominis
Hepatitis C virus [3] = experiment: Binding affinity to HCV 1b con1 isolate recombinant NS5B Cdelta21 RNA dependent RNA polymerase overexpressed in Escherichia coli BL21(DE3) by surface plasmon resonance experiment; parameters: species or system Hepacivirus hominis

## Cc1cccc(C(=O)N2c3cccc(O)c3NC3=C(C2c2ccc(OCc4ccccc4)cc2F)S(=O)(=O)CC(C)(C)C3)n1 (racemic)
Hepatitis C virus [1]
  EC50: 52 nM
Hepatitis C virus [2]
  IC50: 120 nM

## Cc1cccc(C(=O)N2c3cccc(O)c3NC3=C(C(=O)CC(C)(C)C3)[C@@H]2c2ccc(OCc3ccccc3)cc2F)n1
Hepatitis C virus [1]
  EC50: 400 nM
Hepatitis C virus [2]
  IC50: 74 nM
Hepatitis C virus [3]
  Kd: 15 nM

## CC(=O)N1c2cccc(O)c2NC2=C(C(=O)CC(C)(C)C2)[C@@H]1c1ccc(OCc2ccccc2)cc1Cl
Hepatitis C virus [1]
  EC50: 1200 nM

## Cc1cccc(C(=O)N2c3cccc(O)c3NC3=C([C@@H]2c2ccc(OCc4ccccc4)cc2F)S(=O)(=O)CC(C)(C)C3)n1
Hepatitis C virus [1]
  EC50: 29 nM
Hepatitis C virus [2]
  IC50: 26 nM

## Cc1cccc(C(=O)N2c3cccc(O)c3NC3=C([C@H]2c2ccc(OCc4ccccc4)cc2F)S(=O)(=O)CC(C)(C)C3)n1
Hepatitis C virus [1]
  EC50: 4800 nM
Hepatitis C virus [2]
  IC50: 6700 nM
